Assay results from patent publication EP0559845B1, “Use of compounds in preventing endotoxin shock” (priority 1991, dated 1992).

Legend:
[1] = system: TNFα production by RAW264.7 macrophages; test: LPS-mediated TNF production by macrophages, measured by cell viability assay on actinomycin D-sensitized L929 cells; type: cell-based; details: RAW264.7 cells treated with 2-MeSATP (0-5µM), LPS and ATP
Method: Moreover, 2-MeSATP decreased LPS-mediated TNFα production by RAW264.7 macrophages. Production of TNF by the macrophage cells was measured by a "cell viability" assay. This is a standard assay described in Birkland, et al., Adv. Exp. Med. Biol. 256: 399-402 (1990). In brief, TNF in solution will kill actinomycin D-sensitized L929 cells, which can be measured by a loss of MTT dye reduction. The supernatent was removed from RAW264.7 cells treated with 2-MeSATP, LPS and ATP. The greater the amount of 2-MeSATP added (0-5µM), the less TNF was produced by the macrophage cells.

[2] = system: LPS-induced GTPase activity in membranes isolated from RAW 264.7 cells; test: GTPase assay: effect of compounds on LPS-stimulated GTPase activity in macrophage membranes (release of 32Pi from γ-32P-GTP); type: biochemical
From the text: (§1) We sought to directly evaluate the influence of LPS on possible G-protein function by examining agonist-enhanced GTPase activity, which is a hallmark of G-protein action. Moreover, because macrophages are one of the key cell types in the release of toxic mediators following an LPS challenge, we first assessed the capacity of LPS to influence GTPase activity in membranes isolated from RAW 264.7 cells, which is a highly LPS-responsive macrophage cell line. In these studies, GTPase activity was measured using a standard assay. The activity was determined using 2 µM γ-^32P-GTP in the presence of 0.1 mM ATP and 0.2 mM of the non-hydrolyzable ATP analog, AMPPNP, in order to minimize nonspecific nucleotidase activity in the membrane preparations.
The reaction is initiated by the addition of the γ-^32P-GTP and the mixture incubated at 30-37°C for 15 to 30 minutes. The reaction is terminated by the addition of 500µl of 5% trichloroacetic acid and 500µl of 0.1gm/ml acid-activated charcoal in 5% trichloroacetic acid. The samples are centrifuged at 14,000xg for 10 minutes, and a 550µl aliquot of the supernatant is removed for scintillation counting. The supernatant will contain the released ^32Pi. The extent of GTPase inhibition is measured by the decrease in the amount of ^32Pi released from γ-^32P-GTP. Appropriate controls include mixtures with one of the following omitted: (i) test compound, (ii) endotoxin, and (iii) ATP, ADP or AMPPNP.
The membranes are resuspended in 20 mM HEPES (pH 7.4), 1 mM dithiothreitol, 1 mM EDTA and 10 µg leupeptin/ml. Aliquots are stored at -70°C until assayed.

[3] = system: GTPase activity in membranes isolated from a macrophage (RAW 264.7) cell line; test: GTPase assay, basal activity and single agonists; type: biochemical
From the text: as §1, with “preparations. In the preferred practice of the present invention, the ability of a candidate compound to inhibit LPS-induced GTPase is assessed by measuring the release of ^32Pi from γ-^32P-GTP.” for “preparations.”
We first determined the optimal LPS concentration for GTPase stimulation. In all experiments, the LPS dose response curve was quite steep, and with the highest activity occurring around 200-300 µg LPS/ml.
Under these conditions, GTPase activation was evident at 100 µg LPS/ml (roughly 6 µM assuming an average MW ∼ 17,000 kDa), and the maximal effect was seen by 300 µg/ml LPS. (2) To show adenosine mucleotide synergism with LPS-stimulated GTPase activity, either 10µM ATP or 30µM ADP replace the 0.1 mM ATP and 0.2 mM AMPPNP of the standard assay described by Cassel et al. and Neer et al.
Because the above inhibitor studies indicated a maximum LPS-stimulated GTPase activity in the presence of ATP and ATP analogs, we investigated this interaction by measuring the ATP-dependence of the GTPase activity in macrophage membranes in the presence and absence of an optimal dose of LPS. […] This stimulation by ATP may be due to the action of purinergic receptors, i.e., the adenosine and ATP receptors which are well-characterized to be coupled to various G-proteins.
To assess whether the LPS/ATP-enhanced GTPase is a "low Km" form, which would be expected for a variety of large and small MW G-proteins, as well as for various GAP and ARF-like proteins, as opposed to a "high Km" form, such as a phosphatase, we assayed the GTPase activity using 0.2 and 50 µM GTP essentially as described previously. […] The LPS and ATP stimulated a low Km GTPase activity by ∼30% and 70%, respectively, when added individually. This stimulation of low Km activity was slightly greater than that estimated using the standard assay conditions. […] The LPS stimulation of GTPase activity is enhanced by adenine nucleotides.

## 2-methylthio-ATP [2-MeSATP]
[1]
  LPS-mediated TNFα production: decreased
[1]; listed as 2-methylthio-ATP
  LPS-mediated TNFα production: blocks
[2]
  inhibition of LPS-stimulated GTPase activity: blocks
  stimulation (potentiation) of LPS-stimulated GTPase activity: no stimulatory effect
[2]; 2-MeSATP 0-100µM
  antagonism of the stimulatory effects of ATP on LPS-inducible GTPase activity: did antagonize
[2]; dose-response studies, rank order
  relative abilities of purines to stimulate LPS-enhanced GTPase: ATP> ATPγS> ADP> AMPPNP>> β,γ methylene ATP> 2-MeSATP

## phosphatidic acid
[3]
  effect on basal GTPase activity: did not stimulate

## phosphatidylcholine
[3]
  effect on basal GTPase activity: did not stimulate

## phosphatidylserine
[3]
  effect on basal GTPase activity: did not stimulate
